According to patent publication US20260200926A1, “TREM2 MODULATORS” (Muna Therapeutics ApS, priority 2022, published 2026):

Target: T1, Human TREM2 (Homo sapiens, UniProt Q9NZC2)
T1 construct: expressed in transfected cells
Experiment: Human TREM2 activity: cellular phosphorylation of Syk (AlphaLISA SureFire Ultra p-SYK) in HEK293/DAP12+TREM2 stable cell line
Type: cell-based
Details: for Emax: HEK293, maximal response relative to reference agonist example 1B (remaining examples), read-out: Emax; for EC50: phospho-Syk AlphaLISA signal, HEK293/DAP12+TREM2 cells, concentration giving 50% of maximal response, read-out: EC50
Procedure, shortened: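 HEK293 cells stably co-expressing human TREM2 and DAP12 were seeded at 10,000 cells/well and used 20–24 h later. Compounds were tested at 8 concentrations (top 100 μM, 1:6 steps, 0.5% DMSO) for 30 min at 37 °C. Syk phosphorylation at Tyr525/526 was read in lysates by AlphaLISA SureFire Ultra.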

T1 sequence (Q9NZC2 19-230): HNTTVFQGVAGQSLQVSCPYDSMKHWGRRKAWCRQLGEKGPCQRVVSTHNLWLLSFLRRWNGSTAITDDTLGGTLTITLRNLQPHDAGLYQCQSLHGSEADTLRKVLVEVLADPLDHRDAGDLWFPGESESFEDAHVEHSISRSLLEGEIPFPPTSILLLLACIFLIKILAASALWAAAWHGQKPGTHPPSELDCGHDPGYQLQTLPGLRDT
T1 sequence (O43914 22-113 partner): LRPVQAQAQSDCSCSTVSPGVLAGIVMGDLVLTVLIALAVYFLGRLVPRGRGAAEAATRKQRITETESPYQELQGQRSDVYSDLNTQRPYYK

Row | Emax | EC50 | Structure (SMILES)
1 | 75 to 110% | 0.001 to 0.01 µM | Cc1cc([C@@H]2CN(c3cc4c(=O)n(C)c(C)nc4c(-c4ccc(F)cc4F)n3)CC(C)(C)O2)ccn1 (single isomer, unassigned) [Example 159A]
2 | < 75% | 0.1 to 1 µM | Cc1cc([C@H]2CN(c3cc4c(=O)n(C)c(C)nc4c(-c4ccc(F)cc4F)n3)CC(C)(C)O2)ccn1 (single isomer, unassigned) [Example 159B]
3 | 75 to 110% | 0.001 to 0.01 µM | Cc1cc([C@@H]2CN(c3cc4c(=O)n(C)c(C)nc4c(-c4cc(F)c(F)cc4F)n3)CC(C)(C)O2)ccn1 (single isomer, unassigned) [Example 160A]
4 | < 75% | 0.1 to 1 µM | Cc1cc([C@H]2CN(c3cc4c(=O)n(C)c(C)nc4c(-c4cc(F)c(F)cc4F)n3)CC(C)(C)O2)ccn1 (single isomer, unassigned) [Example 160B]
5 | < 75% | 0.1 to 1 µM | Cc1cc([C@@H]2CN(c3cc4c(=O)n(C)c(C)nc4c(-c4ccc(C(F)(F)F)nc4)n3)CC(C)(C)O2)ccn1 (single isomer, unassigned) [Example 161A]
6 | 75 to 110% | 0.001 to 0.01 µM | Cc1cc([C@H]2CN(c3cc4c(=O)n(C)c(C)nc4c(-c4ccc(C(F)(F)F)nc4)n3)CC(C)(C)O2)ccn1 (single isomer, unassigned) [Example 161B]
7 | 75 to 110% | 0.001 to 0.01 µM | Cn1cc([C@@H]2CN(c3nc(-c4cc(F)c(F)cc4F)c4nc(C(F)(F)F)n(C)c(=O)c4n3)CC3(CC3)O2)cn1 (single isomer, unassigned) [Example 162A]
8 | < 75% | 0.01 to 0.1 µM | Cn1cc([C@H]2CN(c3nc(-c4cc(F)c(F)cc4F)c4nc(C(F)(F)F)n(C)c(=O)c4n3)CC3(CC3)O2)cn1 (single isomer, unassigned) [Example 162B]
9 | < 75% | 0.1 to 1 µM | Cc1cc([C@@H]2CN(c3cc4c(=O)n(C)c(C)nc4c(-c4ccc(C(F)(F)F)cc4F)n3)CC(C)(C)O2)ccn1 (single isomer, unassigned) [Example 163A]
10 | 75 to 110% | 0.001 to 0.01 µM | Cc1cc([C@H]2CN(c3cc4c(=O)n(C)c(C)nc4c(-c4ccc(C(F)(F)F)cc4F)n3)CC(C)(C)O2)ccn1 (single isomer, unassigned) [Example 163B]
11 | 75 to 110% | 0.01 to 0.1 µM | Cc1cc([C@@H]2CN(c3nc(-c4ccc(C(F)(F)F)nc4)c4nc(C)n(C)c(=O)c4n3)CC(C)(C)O2)ccn1 (single isomer, unassigned) [Example 164A]
12 | < 75% | 0.001 to 0.01 µM | Cc1cc([C@H]2CN(c3nc(-c4ccc(C(F)(F)F)nc4)c4nc(C)n(C)c(=O)c4n3)CC(C)(C)O2)ccn1 (single isomer, unassigned) [Example 164B]
13 | 75 to 110% | 0.001 to 0.01 µM | Cn1cc([C@@H]2CN(c3nc(-c4ccc(F)cc4F)c4nc(C(F)(F)F)n(C)c(=O)c4n3)CC3(CC3)O2)cn1 (single isomer, unassigned) [Example 165A]
14 | 75 to 110% | 0.01 to 0.1 µM | Cn1cc([C@H]2CN(c3nc(-c4ccc(F)cc4F)c4nc(C(F)(F)F)n(C)c(=O)c4n3)CC3(CC3)O2)cn1 (single isomer, unassigned) [Example 165B]
15 | 75 to 110% | 0.001 to 0.01 µM | Cc1nc2c(-c3ccc(F)cc3F)nc(N3C[C@@H](c4cnn(C)c4)OC(F)(F)C3)cc2c(=O)n1C (single isomer, unassigned) [Example 166A]
16 | < 75% | 0.01 to 0.1 µM | Cc1nc2c(-c3ccc(F)cc3F)nc(N3C[C@H](c4cnn(C)c4)OC(F)(F)C3)cc2c(=O)n1C (single isomer, unassigned) [Example 166B]
17 | < 75% | 0.1 to 1 µM | Cc1cc([C@@H]2C[C@H](c3cc4c(=O)n(C)c(C)nc4c(-c4ccc(C(F)(F)F)cc4F)n3)CCO2)ccn1 (single isomer, unassigned) [Example 168A]
18 | 75 to 110% | 0.001 to 0.01 µM | Cc1cc([C@H]2C[C@@H](c3cc4c(=O)n(C)c(C)nc4c(-c4ccc(C(F)(F)F)cc4F)n3)CCO2)ccn1 (single isomer, unassigned) [Example 168B]
19 | 75 to 110% | < 0.001 µM | Cc1cc([C@@H]2CN(c3nc(-c4ccc(F)cc4F)c4nc(C)n(C)c(=O)c4n3)CC(F)(F)O2)ccn1 (single isomer, unassigned) [Example 169A]
20 | 75 to 110% | 0.01 to 0.1 µM | Cc1cc([C@H]2CN(c3nc(-c4ccc(F)cc4F)c4nc(C)n(C)c(=O)c4n3)CC(F)(F)O2)ccn1 (single isomer, unassigned) [Example 169B]
21 | < 75% | 0.1 to 1 µM | Cc1cc([C@@H]2CN(c3nc(-c4ccc(F)cc4F)c4nc(C)n(C)c(=O)c4n3)CC(C)(C)O2)ccn1 (single isomer, unassigned) [Example 170A]
22 | 75 to 110% | 0.001 to 0.01 µM | Cc1cc([C@H]2CN(c3nc(-c4ccc(F)cc4F)c4nc(C)n(C)c(=O)c4n3)CC(C)(C)O2)ccn1 (single isomer, unassigned) [Example 170B]

Row | Emax | EC50 | Structure (SMILES)
23 | > 110% | 0.001 to 0.01 µM | Cc1cc([C@@H]2CN(c3cc4c(=O)n(C)c(C)nc4c(-c4ccc(F)cc4F)n3)CC(F)(F)O2)ccn1 (single isomer, unassigned) [Example 171A]
24 | < 75% | 0.1 to 1 µM | Cc1cc([C@H]2CN(c3cc4c(=O)n(C)c(C)nc4c(-c4ccc(F)cc4F)n3)CC(F)(F)O2)ccn1 (single isomer, unassigned) [Example 171B]
25 | < 75% | 0.1 to 1 µM | Cc1cc([C@@H]2CN(c3cc4c(=O)n(C)c(C)nc4c(-c4ccc(Cl)cc4F)n3)CC(C)(C)O2)ccn1 (single isomer, unassigned) [Example 172A]
26 | 75 to 110% | 0.001 to 0.01 µM | Cc1cc([C@H]2CN(c3cc4c(=O)n(C)c(C)nc4c(-c4ccc(Cl)cc4F)n3)CC(C)(C)O2)ccn1 (single isomer, unassigned) [Example 172B]
27 | < 75% | 0.01 to 0.1 µM | Cc1nc2c(-c3ccc(Cl)cc3F)nc(N3C[C@@H](c4cnn(C)c4)OC4(CC4)C3)c(F)c2c(=O)n1C (single isomer, unassigned) [Example 173A]
28 | < 75% | 0.01 to 0.1 µM | Cc1nc2c(-c3ccc(Cl)cc3F)nc(N3C[C@H](c4cnn(C)c4)OC4(CC4)C3)c(F)c2c(=O)n1C (single isomer, unassigned) [Example 173B]
29 | < 75% | 0.01 to 0.1 µM | Cc1cc([C@@H]2CN(c3nc(-c4ccc(F)cc4F)c4nc(C(F)(F)F)n(C)c(=O)c4c3F)CCO2)ccn1 (single isomer, unassigned) [Example 174A]
30 | < 75% | 0.1 to 1 µM | Cc1cc([C@H]2CN(c3nc(-c4ccc(F)cc4F)c4nc(C(F)(F)F)n(C)c(=O)c4c3F)CCO2)ccn1 (single isomer, unassigned) [Example 174B]
31 | 75 to 110% | 0.001 to 0.01 µM | Cc1cc([C@@H]2CN(c3nc(-c4ccc(F)cc4F)c4nc(C)n(C)c(=O)c4n3)C[C@H](C)O2)ccn1 (single isomer, unassigned) [Example 175A]
32 | 75 to 110% | 0.01 to 0.1 µM | Cc1cc([C@H]2CN(c3nc(-c4ccc(F)cc4F)c4nc(C)n(C)c(=O)c4n3)C[C@@H](C)O2)ccn1 (single isomer, unassigned) [Example 175B]
33 | 75 to 110% | < 0.001 µM | Cc1cc([C@@H]2CN(c3nc(-c4ccc(Cl)cc4F)c4nc(C)n(C)c(=O)c4n3)C[C@H](C)O2)ccn1 (single isomer, unassigned) [Example 176A]
34 | 75 to 110% | 0.001 to 0.01 µM | Cc1cc([C@H]2CN(c3nc(-c4ccc(Cl)cc4F)c4nc(C)n(C)c(=O)c4n3)C[C@@H](C)O2)ccn1 (single isomer, unassigned) [Example 176B]
35 | < 75% | 0.01 to 0.1 µM | Cc1nc2c(-c3ccc(F)cc3F)nc(N3C[C@@H](c4cnn(C5CC5)c4)O[C@@H](C)C3)nc2c(=O)n1C (single isomer, unassigned) [Example 177A]
36 | 75 to 110% | 0.001 to 0.01 µM | Cc1nc2c(-c3ccc(F)cc3F)nc(N3C[C@@H](C)O[C@@H](c4cnn(C5CC5)c4)C3)nc2c(=O)n1C (single isomer, unassigned) [Example 177B]
37 | 75 to 110% | 0.001 to 0.01 µM | Cc1nc2c(-c3ccc(Cl)cc3F)nc(N3C[C@@H](c4cnn(C5CC5)c4)O[C@@H](C)C3)nc2c(=O)n1C (single isomer, unassigned) [Example 178A]
38 | 75 to 110% | 0.001 to 0.01 µM | Cc1nc2c(-c3ccc(Cl)cc3F)nc(N3C[C@@H](C)O[C@@H](c4cnn(C5CC5)c4)C3)nc2c(=O)n1C (single isomer, unassigned) [Example 178B]
39 | 75 to 110% | 0.001 to 0.01 µM | Cc1cc([C@@H]2CN(c3nc(-c4ccc(C(F)(F)F)cc4F)c4nc(C)n(C)c(=O)c4n3)C[C@H](C)O2)ccn1 (single isomer, unassigned) [Example 179A]
40 | 75 to 110% | < 0.001 µM | Cc1cc([C@H]2CN(c3nc(-c4ccc(C(F)(F)F)cc4F)c4nc(C)n(C)c(=O)c4n3)C[C@@H](C)O2)ccn1 (single isomer, unassigned) [Example 179B]
41 | < 75% | > 1 µM | Cc1cc([C@@H]2CN(c3cc4c(=O)n(C)c(C)nc4c(-c4ccc(C(F)F)nc4)n3)CC(C)(C)O2)ccn1 (single isomer, unassigned) [Example 180A]
42 | < 75% | 0.01 to 0.1 µM | Cc1cc([C@H]2CN(c3cc4c(=O)n(C)c(C)nc4c(-c4ccc(C(F)F)nc4)n3)CC(C)(C)O2)ccn1 (single isomer, unassigned) [Example 180B]
43 | < 75% | 0.01 to 0.1 µM | Cc1cc([C@@H]2CN(c3cc4c(=O)n(C)c(C)nc4c(-c4ccc(C(F)F)nc4)n3)CC(F)(F)O2)ccn1 (single isomer, unassigned) [Example 181A]
